# Assay results reported in patent US7445791B2, “Synergistic insecticidal composition containing Chloronicotynyle and Organosphosphorus compounds” (priority 2004, dated 2008).
# Where two headings read alike, the source gives them in different places.
# How the values were obtained:
# [1] = tested on: Brown plant hoppers and Green plant hoppers; assay type: in vivo; conditions: 5 days after treatment
# Description: In this evaluation, Brown plant hoppers and Green plant hoppers are obtained from laboratory colonies. Paddy leaves are immersed in 1:1 v/v, acetone/water solutions of the test compound, or solution of a combination of the test compounds, for a period of about 4 seconds. Following immersion, leaves are allowed to air-dry for 2-3 hours. Plastic bioassay trays containing multiple open-faced wells (4.0×4.0×2.5 cm) are used. Cut portions of a treated leaf, a moistened cotton dental wick and a single third-instar larva are placed into each well. These wells are covered with an adhesive vented clear plastic sheet which is held under constant fluorescent light at about 30° C. for a predetermined period of time. Larval mortality/morbidity is evaluated at 5 days after treatment. All treatments are replicated 3-4 fold in a randomized complete block design with 15-30 larvae per treatment. Using conventional log-probit analysis, the LC50 of each treatment is determined.
# Using the above process, a Chloronicotynyle compound may be evaluated alone and in combination with a second insecticidal compound, Imidacloprid, at dose rates of 0, 15, 18, 21, 24, 27 and 30 ppm and in combination with Acephate 0, 400, 500, 600, 700, 800 ppm in various combination of these strengths.
# Synergism can be calculated by using the Colby's method i.e. the expected (or predicted) response of the combination is calculated by taking the product of the observed response for each individual component of the combination when applied alone divided by 100 and subtracting this value from the sum of observed response for each component when applied alone. Synergism of the combination is then determined by comparing the observed response of the combination to the expected (or predicted) response as calculated from the observed response of each individual component alone. If the observed response of the combination is greater than the expected (or predicted) response then the combination is said to be synergistic and falls within the definition of synergistic effect. (Colby, S. R., Weeds, 1967(15), p. 20-22).
# [2] = 20° C.; cited from earlier work
# [3] = cited from earlier work
# crop plants = conditions: cited from earlier work
# [4] = cited from earlier work; for DT50 hydrolysis: 40° C.; for DT 50 (calculated) hydrolysis: 20° C.
# [5] = tested on: nematodes and spider mites; conditions: cited from earlier work
# mice = conditions: cited from earlier work
# [6] = mammals, oral administration, almost entirely in the urine; cited from earlier work
compound,measurement,setting,value
"COP(=O)(NC(C)=O)SC (stereo not shown) [Acephate, O,S-dimethylacetylphosphoramidothioate]",Observed Mortality %,[1]; Acephate 600 ppm alone,52.50%
same,Observed Mortality %,[1]; Acephate 700 ppm alone,60.00%
same,Observed Mortality %,[1]; Acephate 800 ppm alone,70.00%
same,solubility in water,[2],about 790 g/l
same,solubility in acetone,[3]; 20° C.,151 mg/mL
same,solubility in benzene,[3]; 20° C.,16 mg/mL
same,solubility in ethanol,[3]; 20° C.,> 100 mg/mL
same,solubility in ethyl acetate,[3]; 20° C.,35 mg/mL
same,solubility in hexane,[3]; 20° C.,0.1 mg/mL
same,phytotoxicity to crop plants (in words),crop plants,non-phytotoxic to most crop plants
same,DT50 hydrolysis,[4]; pH 3,710 h
same,DT50 hydrolysis,[4]; pH 9,60 h
"O=[N+]([O-])NC1=NCCN1Cc1ccc(Cl)nc1 [Imidacloprid, 1-(6-chloro-3-pyridylmethyl)-N-nitroimidazolidin-2-yldeneamine]",effect on nematodes and spider mites,[5],no effect
same,Observed Mortality %,[1]; Imidacloprid 20 ppm alone,47.30%
same,acute oral LD50,mice,150 mg/kg
same,solubility in dichloromethane,[3]; 20° C.,55 mg/mL
same,solubility in hexane,[3]; 20° C.,< 0.1 mg/mL
same,solubility in isopropanol,[3]; 20° C.,1.2 mg/mL
same,solubility in toluene,[3]; 20° C.,0.68 mg/mL
"CCN(CC)C(=O)C(Cl)=C(C)OP(=O)(OC)OC [Phosphamidon, 2-chloro-2-diethylcarbamoyl-1-methylvinyldimethylphosphate]",Observed Mortality %,[1]; Phosphamidon 320 ppm alone,60.0%
same,Observed Mortality %,[1]; Phosphamidon 370 ppm alone,65%
same,Observed Mortality %,[1]; Phosphamidon 400 ppm alone,72.0%
same,dose excreted within 24 hours,[6],85-90%
same,DT 50 (calculated) hydrolysis,[4]; pH 5,60 days
same,DT 50 (calculated) hydrolysis,[4]; pH 7,54 days
same,DT 50 (calculated) hydrolysis,[4]; pH 9,12 days
same,hydrolysis in alkali (in words),[4]; alkali,rapidly hydrolysed
(E)-N′-[(6-chloro-3-pyridyl)methyl]-N-cyano-N-methylacetamidine [Acetamiprid],solubility in organic solvents (in words),"[3]; acetone, methanol, ethanol, dichloromethane, chloroform, acetonitrile and tetrahydrofuron",Soluble
